Assay results from paper PMC11212260, “Next-generation neuropeptide Y receptor small-molecule agonists inhibit mosquito-biting behavior” (Parasites & Vectors, 2024).
Several values for one entry are separate records, joined by “and”; a condition that tells them apart may be missing. Equal entries are not always repeated. Where two headings read alike, the source gives them in different places.

How the values were obtained:
[1] = molecular target: Ae. aegypti NPYLR7 (Aedes aegypti, UniProt U5N1H5); experiment: In vitro calcium (GCaMP6s) FLIPR assay in HEK293T cells transfected with NPYLR7; format: cell-based; details: for activation at 100 µM: single replicate of the dose-response curve; for RFU: assay date 1/11/20 plate 1, duplicate wells, listed as TDI-012615-NX-1
Chain of Ae. aegypti NPYLR7 (U5N1H5 entry or part of it): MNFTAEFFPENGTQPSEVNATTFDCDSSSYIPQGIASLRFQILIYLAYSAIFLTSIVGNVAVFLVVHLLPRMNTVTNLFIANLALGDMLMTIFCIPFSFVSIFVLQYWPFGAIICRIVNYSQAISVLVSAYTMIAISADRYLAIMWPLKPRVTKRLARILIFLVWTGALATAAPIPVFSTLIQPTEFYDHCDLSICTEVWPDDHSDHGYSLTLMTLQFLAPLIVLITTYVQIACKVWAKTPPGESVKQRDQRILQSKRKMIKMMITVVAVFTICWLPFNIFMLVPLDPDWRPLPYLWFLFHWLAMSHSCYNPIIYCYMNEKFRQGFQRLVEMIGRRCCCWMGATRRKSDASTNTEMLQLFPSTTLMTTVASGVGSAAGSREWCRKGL
Method: The in vitro screening assay was adapted from, and carried out at HD Biosciences (HDB, Shanghai) as follows: HEK293T (Thermo Fisher Scientific) cells were grown in Dulbecco’s modified Eagle medium (DMEM) (high glucose, with glutamine), 10% fetal bovine serum, 1% penicillin–streptomycin (Pen/Strep), seeded in a 75 cm^2 flask, and incubated at 37 °C and 5% CO2. Cells were transiently transfected with 1 μg of each plasmid expressing GCaMP6s (Addgene […]) (Chen et al., 2013), mouse Gqα15 (Addgene #40753) (Offermanns and Simon, 1995) and Ae. aegypti NPYLR7 (Addgene #52392) (Duvall et al. 2019) using Lipofectamine 2000 (Invitrogen) in 4 ml of Opti-MEM (Invitrogen). This mixture was added to a plate after 20 min and incubated for 6–8 h. Cells were then trypsinized, resuspended in phenol-free media, and plated in a 384-well plate (Greiner Bio-One) at a density of 20,000 cells per 40 μl, and incubated overnight (37 °C, 5% CO2). Cells were imaged directly in phenol-free media. Plates were loaded into a Molecular Devices fluorescence imaging plate reader (FLIPR) with an excitation wavelength of 470–495 nm and an emitted wavelength of 515–575 nm. Plates were imaged every second for 5 min. After 30 s of baseline fluorescence recording, 10 μl of the test compound in reading buffer [Hank’s Balanced Salt Solution (Gibco) + 20 mM HEPES (Sigma-Aldrich)] was added. Concentrations tested ranged from 0 to 100 μM. Data were collected in raw fluorescence units (RFU).
Each test plate included replicates of 10 μM FMRFa3 (H‐Ala‐Gly‐Gln‐Gly‐Phe‐Met‐Arg‐Phe‐NH2), an Ae. aegypti neuropeptide agonist of NPYLR7 used to calculate the hundred percent effect (HPE). The zero percent effect (ZPE) control was calculated as a response to buffer alone. The Z′ factor was calculated for each plate by Z^′=1-3σHPE+3σZPE/|μHPE-μZPE| . Plates with Z′ < 0.5 were excluded from analysis. Raw fluorescence units (RFU) were converted to percent effect relative to the average of the ZPE and HPE. Percent effect = (sample luminescence − average ZPE)/(average HPE − average ZPE)×100. […] Each replicate was plotted as percent effect versus log[concentration], and replicates with maximal responses between 20 and 250% were used for EC50 calculations. Relative EC50 was calculated using an [Agonist] versus response–variable slope four-parameter model where Y=Bottom+(X^Hillslope)∗(Top-Bottom)/(X^HillSlope+EC50^HillSlope) . For compounds with multiple replicates, the relative EC50 of each replicate was averaged.

[2] = system: Aedes aegypti (Orlando strain) females; experiment: Host-seeking screening assay (miniport olfactometer); format: in vivo; details: fed 1 μM in saline, tested 48 h post-meal; for Host-seeking relative to saline (test compound % host-seeking/average matched saline % host-seeking): individual replicates; for Attraction (relative to saline): per-compound value of Fig. 3C
Method: Groups of 60–150 females were placed in bucket cages with a diameter of 21.6 cm and height of 16.5 cm (VWR) and fasted with access to water for 24 h prior to feeding. Meals were delivered to females via Glytube membrane feeders as described previously. Meals consisted of 1.5 ml sheep blood (HemoStat Laboratories), saline (400 mM NaHCO3 + dih2O), or saline and test compound. Lyophilized compounds were stored at room temperature until use. High-concentration stocks (30 mM in 100% dimethyl sulfoxide [DMSO]) (Sigma-Aldrich) were stored at −20 °C and diluted in saline immediately prior to feeding. Once prepared, meals and glycerol heating elements were warmed in a 42 °C water bath for 15 min to provide warmth to attract mosquitos to feed. ATP (1 mM final concentration) and test compounds (1 μM final concentration) were added prior to placing the meal on top of the mesh on the cage containing female mosquitos. Females were allowed 15–20 min to feed to repletion. Abdominal engorgement was scored by eye and confirmed by weighing females to ensure full feeding (Data S1). […] Females were returned to their original cage with a diH2O wick for 48 h prior to behavioral testing. The lethality of each compound was measured by counting the number of dead females in each cage 24 h post-meal.
Miniport olfactometers were fabricated in-house as described previously. Information regarding design, construction, and use can be found at https://github.com/VosshallLab/Miniport-Construction. Miniport canisters consisted of a 6″ × 3″ × 3″ acrylic tube with a mesh screen to allow for air flow. Groups of 10–20 females were loaded into canisters 24 h post-meal. Females were left in canisters overnight to acclimate with two cotton balls soaked in diH20 to prevent desiccation. Behavior trials began 48 h post-meal. Canisters were randomly assigned to attraction traps 1–4 and given 5 min to acclimate. The stimulus end of the trap was connected to a flowmeter that supplied 5% CO2 at a rate of 30 ml/min. Thirty seconds of CO2 flow was supplied to activate females prior to opening the sliding door. Once opened, the sliding door gave females access to the attraction trap baited with a human-scented nylon stocking previously worn by the same experimenter for 8–10 h to collect body odor and stored in a plastic bag at −20 °C until use. After 5 min, the sliding door was closed and attraction was scored as mosquitoes in the attraction trap/total number of mosquitoes. For each experiment data were normalized to the matched average saline attraction from the same experiment (% attracted/average saline attraction). Any dead mosquitoes were excluded from the analysis. Non-fed females and blood-fed females served as environmental control groups while the saline-fed females served as the vehicle control each day. If non-fed or saline-fed females were less than 50% attracted or if blood-fed females were more than 20% attracted behavioral trials were halted and all data from that experimental day were discarded.

[3] = EC50 of the individual assay date/plate (assay date), read-out: EC50
[4] = Figure 1E Summary, second list (n = 48), read-out: Reported Metric (Summary list)
[5] = HEK-293T, 100 uM, normalised response
[6] = relative EC50, percent effect relative to 10 μM FMRFa3, read-out: EC50
[7] = sheet Figure 3C, unit inferred, read-out: EC50
[8] = summary EC50 per compound (mean over assay dates), the unit is taken from the neighbouring EC50 (uM) column, read-out: Reported Metric
[9] = Figure 1E Summary, third list (n = 39), read-out: Reported Metric (Summary list)
[10] = HEK-293T, single replicate, normalised response

Row | SMILES | EC50 [1, 3] [µM] | EC50 [1, 4] [µM] | activation at 100 µM [1, 5] [%] | EC50 [1, 6] [µM] | EC50 [1, 7] [µM] | EC50 [1, 8] [µM] | Attraction (relative to saline) [2] | EC50 [1, 9] [µM] | activation at 11.1111 µM [1, 10] [%] | activation at 33.3333 µM [1, 10] [%] | further results
1 | Cc1nc(NC(=N)N)nc2cc(OCC3CCCOC3)ccc12 (stereo not drawn) [TDI-014167] | 7.37 | 7.37 | 66.1 | 7.37 | 7.37 | 7.37 | 0.975 | – | – | – | Host-seeking relative to saline (test compound % host-seeking/average matched saline % host-seeking) ([2]; listed as TDI-04167): 0.97
2 | COc1ccc(COc2ccc3c(C)nc(NC(=N)N)nc3c2)cn1 [TDI-014173] | 1.32 | – | – | 1.32 | 1.32 | 1.32 | 0.88 | 1.32 | 74.1 | 101 | activation at 0.4115 µM [1, 10]: 47.7%; activation at 1.2346 µM [1, 10]: 53.6%; activation at 3.7037 µM [1, 10]: 83.8%
3 | Cc1nc(NC(=N)N)nc2cc(OCc3cnccn3)ccc12 [TDI-014181] | 6.21 | 6.21 | – | 6.21 | 6.21 | 6.21 | 0.975 | – | – | – | –
4 | CNc1nc(NC(=N)N)nc2cc(OCc3ccc(OC)cc3)ccc12 [TDI-014190] | 0.0181 | – | 91.9 | 0.0181 | 0.0181 | 0.0181 | 0.805 | 0.0181 | 69.9 | 92.1 | activation at 0.1372 µM [1, 10]: 46.8%; activation at 1.2346 µM [1, 10]: 77.5%
5 | Cc1nc(NC(=N)N)nc2cc(OC(F)F)ccc12 [TDI-012615] | – | – | – | 1.62 | – | – | 0.94 | 1.62 | – | – | RFU ([1]; 0.00169350878084303uM): 74 RFU and 66 RFU; RFU ([1]; 0.00508052634252909uM): 74 RFU and 63 RFU; RFU ([1]; 0.0152415790275873uM): 71 RFU and 60 RFU; RFU ([1]; 0.0457247370827618uM): 57 RFU and 73 RFU; RFU ([1]; 0.137174211248285uM): 57 RFU and 91 RFU; RFU ([1]; 0.411522633744856uM): 153 RFU and 157 RFU; RFU ([1]; 1.23456790123457uM): 207 RFU and 271 RFU; RFU ([1]; 3.7037037037037uM): 247 RFU and 267 RFU; RFU ([1]; 11.1111111111111 uM): 339 RFU and 333 RFU; RFU ([1]; 33.333333 uM): 353 RFU and 317 RFU; RFU ([1]; 100 uM): 434 RFU and 405 RFU; EC50 ([1]; Figure 1E, EC50 of the single assay date/plate, read-out: EC50): 1.31 µM and 1.93 µM; EC50 ([1]; Figure 1E, metric reported per compound, repeated on every replicate line, read-out: Reported Metric (EC50)): 1.62 µM
6 | CNc1nc(NC(=N)N)nc2cc(OCc3ccc(OC)cc3)c(OC)cc12 [TDI-014185] | 0.0175 | – | – | 0.0175 | 0.0175 | 0.0175 | 0.79 | 0.0175 | 79.9 | – | activation at 0.0457 µM [1, 10]: 70.6%; activation at 0.1372 µM [1, 10]: 69.2%
7 | COc1ccc(COc2ccc3c(C)nc(NC(=N)N)nc3c2)cc1OC [TDI-014180] | 0.00192 | – | 63.8 | 0.00192 | 0.00192 | 0.00192 | 0.93 | 0.00192 | 74 | 81.8 | activation at 0.0152 µM ([1]; HEK-293T, 0.0152 uM, single replicate, normalised response): 42.4%; activation at 0.0457 µM [1, 10]: 59.4%; activation at 0.1372 µM [1, 10]: 67.9%; activation at 0.4115 µM [1, 10]: 85.1%; activation at 3.7037 µM [1, 10]: 96.7%; Host-seeking relative to saline (test compound % host-seeking/average matched saline % host-seeking) ([2]; listed as TDI-04180): 0.93
8 | CCOc1ccc2c(C)nc(NC(=N)N)nc2c1 [TDI-014177] | 5.6 | 5.6 | 49.6 | 5.6 | 5.6 | 5.6 | 0.94 | – | – | – | Host-seeking relative to saline (test compound % host-seeking/average matched saline % host-seeking) ([2]; listed as TDI-04177): 1.17 and 0.9
9 | Cc1nc(NC(=N)N)nc2cc(OCC(F)(F)F)ccc12 [TDI-014168] | 4.26 | 4.26 | 74.2 | 4.26 | 4.26 | 4.26 | 1.03 | – | – | 80.4 | Host-seeking relative to saline (test compound % host-seeking/average matched saline % host-seeking) ([2]; listed as TDI-04168): 1.07
10 | Cc1nc(NC(=N)N)nc2cc(OCc3cccnn3)ccc12 [TDI-014179] | 39.3 | 39.3 | – | 39.3 | 39.3 | 39.3 | 0.865 | – | – | 23.1 | –
11 | COc1cc2c(C)nc(NC(=N)N)nc2cc1OCc1ccccc1 [TDI-012943] | – | – | – | 0.0545 | – | – | 1.035 | 0.0545 | – | – | EC50 ([1]; Figure 1E summary value per compound, repeated on each replicate line, read-out: Reported Metric (EC50 summarised over assay dates)): 0.0545 µM; EC50 ([1]; fit per assay date/plate (c2), repeated on the replicate lines of one date, read-out: EC50): 0.0446 µM and 0.119 µM
